One experiment deals with THP-1 cells. As to the kind of experiment: In vitro antiproliferative CCK-8 assay, THP-1. The experiment is classed as cell-based. Particulars: Homo sapiens, dose of 1 μM, mean of three experiments, read-out: THP-1 percentage inhibitory rate. How it is done:
The proliferation of THP-1, MOLM-13, SEM and MV4-11 cells was tested by CCK-8 assay. Briefly, cells were seeded in 96-well plate with about 5 × 10^3 cells in each well. The cells were treated with P6 or Ara-C (0–10 µM) after 24 h of incubation. CCK-8 reagent ([…]) was added to each well after 72 h of incubation, and cells were incubated at 37°C for 4 h. The light absorbance at 450 nm was measured by using an Opsys microplate reader (Dynex Technologirs, Chantilly, VA, United States). Results are illustrated as percent of cell viability normalized to DMSO-treated control cells.

A further experiment addresses T1, SIRT3 (Homo sapiens, UniProt Q9NTG7).
T1 sequence (Q9NTG7 1-399): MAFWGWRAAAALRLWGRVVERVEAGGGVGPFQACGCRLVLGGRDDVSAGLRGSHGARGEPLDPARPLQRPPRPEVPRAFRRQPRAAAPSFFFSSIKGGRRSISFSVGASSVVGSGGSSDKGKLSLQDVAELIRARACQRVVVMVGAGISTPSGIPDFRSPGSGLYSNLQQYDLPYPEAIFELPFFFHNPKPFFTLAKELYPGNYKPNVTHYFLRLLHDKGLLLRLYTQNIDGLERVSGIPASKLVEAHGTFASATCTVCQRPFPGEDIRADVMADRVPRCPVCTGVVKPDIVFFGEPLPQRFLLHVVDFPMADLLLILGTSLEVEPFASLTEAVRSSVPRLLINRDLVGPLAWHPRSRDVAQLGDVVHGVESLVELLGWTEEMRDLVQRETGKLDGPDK
As to the kind of experiment: SIRT3 enzyme inhibitory assay (fluorescence). Format: biochemical. The settings on record: dose of 10 μM; mean of three experiments; read-out: SIRT3 percentage inhibitory rate. As for the experimental part:
(§1) All of the enzymatic reactions were conducted at 37°C for 30 min. […] The compounds were diluted in 10% DMSO and 5 ul of the dilution was added to each reaction mixture (50 ul). The assay was performed by quantitating the amount of fluorescent product generated from the enzyme reaction. Fluorescence intensity is then analyzed at excitation wavelength of 350–360 nm and emission wavelength of 450–460 nm on a SpectraMax M5 microtiter plate reader. The IC50 values were calculated using Prism GraphPad software.

The target in a further experiment is T2, SIRT2 (Homo sapiens, UniProt Q8IXJ6).
T2 sequence (Q8IXJ6 1-389): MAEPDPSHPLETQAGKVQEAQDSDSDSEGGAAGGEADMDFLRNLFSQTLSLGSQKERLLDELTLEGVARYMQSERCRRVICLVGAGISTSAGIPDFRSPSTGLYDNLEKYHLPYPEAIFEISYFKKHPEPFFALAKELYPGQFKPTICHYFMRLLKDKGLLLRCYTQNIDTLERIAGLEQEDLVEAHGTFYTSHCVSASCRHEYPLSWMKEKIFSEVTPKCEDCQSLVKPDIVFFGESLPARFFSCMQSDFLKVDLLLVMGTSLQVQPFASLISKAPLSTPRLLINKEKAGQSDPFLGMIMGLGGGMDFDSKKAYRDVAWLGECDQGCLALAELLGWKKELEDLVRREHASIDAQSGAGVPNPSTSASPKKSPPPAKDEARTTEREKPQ
Kind of experiment: SIRT2 enzyme inhibitory assay (fluorescence). The settings on record: for activity at 0.01 µM / activity at 0.033 µM / activity at 0.1 µM / activity at 0.333 µM / activity at 1 µM / activity at 3.3 µM / activity at 10 µM / activity at 33 µM / activity at 100 µM: SIRT2 enzyme activity; for activity at 0.01 µM: 10 nM; for activity at 0.033 µM: 33 nM; for activity at 0.1 µM: 100 nM; for activity at 0.333 µM: 333 nM. Format: biochemical. As for the experimental part:
as §1

The target in the next experiment is T3, SIRT1 (Homo sapiens, UniProt Q96EB6).
T3 sequence (Q96EB6 1-747): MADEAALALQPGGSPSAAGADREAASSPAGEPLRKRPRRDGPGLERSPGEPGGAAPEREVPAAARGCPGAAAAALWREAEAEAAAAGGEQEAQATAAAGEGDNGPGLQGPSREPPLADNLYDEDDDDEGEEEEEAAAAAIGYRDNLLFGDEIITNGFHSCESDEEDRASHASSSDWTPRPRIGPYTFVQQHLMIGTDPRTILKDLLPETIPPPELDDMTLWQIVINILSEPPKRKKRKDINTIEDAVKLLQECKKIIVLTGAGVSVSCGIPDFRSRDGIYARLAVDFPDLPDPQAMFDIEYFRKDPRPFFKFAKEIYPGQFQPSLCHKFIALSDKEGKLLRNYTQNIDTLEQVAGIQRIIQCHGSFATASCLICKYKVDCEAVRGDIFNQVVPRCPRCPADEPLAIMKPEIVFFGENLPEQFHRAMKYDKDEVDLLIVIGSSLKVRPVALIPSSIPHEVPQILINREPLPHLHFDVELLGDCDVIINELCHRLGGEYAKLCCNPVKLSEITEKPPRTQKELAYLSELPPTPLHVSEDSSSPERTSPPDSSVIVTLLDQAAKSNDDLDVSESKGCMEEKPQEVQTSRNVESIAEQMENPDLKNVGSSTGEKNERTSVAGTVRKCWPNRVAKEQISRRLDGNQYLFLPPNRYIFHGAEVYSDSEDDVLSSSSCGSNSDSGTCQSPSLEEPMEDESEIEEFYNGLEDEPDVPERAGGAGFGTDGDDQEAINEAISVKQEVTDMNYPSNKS
As to the kind of experiment: SIRT1 enzyme inhibitory assay (fluorescence). The experiment is classed as biochemical. The settings on record: SIRT1 enzyme activity; for activity at 0.333 µM: 333 nM. How it is done: as §1

Results on 13 compounds are retold here after paper PMC9005971, “Discovery of 2-(4-Acrylamidophenyl)-Quinoline-4-Carboxylic Acid Derivatives as Potent SIRT3 Inhibitors” (Frontiers in Chemistry, 2022).

Consider `C=CC(=O)Nc1ccc(-c2cc(C(=O)N3CCN(c4ccc(F)cc4)CC3)c3ccccc3n2)cc1` [Compound P1], for which the inhibition at 1 µM with THP-1 cells was 32.5 ± 2.56%. For the same compound, the inhibition at 10 µM at SIRT3 worked out at 20.2 ± 1.22%.

On to `C=CC(=O)Nc1ccc(-c2cc(C(=O)N3CCN(C(=O)OC(C)(C)C)CC3)c3ccccc3n2)cc1` [Compound P2, 4-[2-(4-Acryloylamino-phenyl)-quinoline-4-carbonyl]-piperazine-1-carboxylic acid tert-butyl ester], for which the inhibition at 1 µM in the experiment on THP-1 cells worked out at 26.4 ± 1.55%. In addition, on SIRT3, the inhibition at 10 µM was determined as 23.5 ± 2.13%.

As for `C=CC(=O)Nc1ccc(-c2cc(C(=O)N3CCN(C(C)C)CC3)c3ccccc3n2)cc1` [Compound P3, N-{4-[4-(4-Isopropyl-piperazine-1-carbonyl)-quinolin-2-yl]-phenyl}-acrylamide], the inhibition at 1 µM in the experiment on THP-1 cells is 8.78 ± 0.37%. Besides, the inhibition at 10 µM on SIRT3 was 30.6 ± 2.45%.

Consider `C=CC(=O)Nc1ccc(-c2cc(C(=O)N3CCN(c4cccc(Cl)c4)CC3)c3ccccc3n2)cc1` [Compound P4, N-(4-{4-[4-(3-Chloro-phenyl)-piperazine-1-carbonyl]-quinolin-2-yl}-phenyl)-acrylamide], for which the inhibition at 1 µM in the experiment with THP-1 cells was 57.9 ± 3.04%. In addition, the inhibition at 10 µM at SIRT3 stood at 21.8 ± 1.62%.

Turning to `C=CC(=O)Nc1ccc(-c2cc(C(=O)N3CCN(c4ccc(Cl)cc4)CC3)c3ccccc3n2)cc1` [Compound P5, N-(4-{4-[4-(4-Chloro-phenyl)-piperazine-1-carbonyl]-quinolin-2-yl}-phenyl)-acrylamide], the inhibition at 1 µM in the experiment on THP-1 cells is 56 ± 2.66%. At SIRT3, the inhibition at 10 µM worked out at 22.6 ± 1.87%.

For the compound `C=CC(=O)Nc1ccc(-c2cc(C(=O)N3CCN(c4ccc(OC)cc4)CC3)c3ccccc3n2)cc1` [Compound P7, N-(4-{4-[4-(4-Methoxy-phenyl)-piperazine-1-carbonyl]-quinolin-2-yl}-phenyl)-acrylamide], the inhibition at 1 µM in the experiment on THP-1 cells came to 12.4 ± 1.07%. Also, on SIRT3, the inhibition at 10 µM amounted to 24.9 ± 1.47%.

Take `C=CC(=O)Nc1ccc(-c2cc(C(=O)N3CCN(c4ccccc4OC)CC3)c3ccccc3n2)cc1` [Compound P8, N-(4-{4-[4-(2-Methoxy-phenyl)-piperazine-1-carbonyl]-quinolin-2-yl}-phenyl)-acrylamide]: in the experiment with THP-1 cells, the inhibition at 1 µM is 73.7 ± 3.74%. In addition, at SIRT3, the inhibition at 10 µM was found to be 45.5 ± 3.67%.

On to `C=CC(=O)Nc1ccc(-c2cc(C(=O)N3CCN(CCc4ccccc4)CC3)c3ccccc3n2)cc1` [Compound P9, N-{4-[4-(4-Phenethyl-piperazine-1-carbonyl)-quinolin-2-yl]-phenyl}-acrylamide], for which the inhibition at 1 µM with THP-1 cells came out at 11.7 ± 0.88%. Further, the inhibition at 10 µM on SIRT3 turned out to be 30.2 ± 1.94%.

Consider `C=CC(=O)Nc1ccc(-c2cc(C(=O)Nc3ccc(Br)cc3)c3ccccc3n2)cc1` [Compound P10, 2-(4-Acryloylamino-phenyl)-quinoline-4-carboxylic acid (4-bromo-phenyl)-amide], for which the inhibition at 1 µM in the experiment on THP-1 cells was found to be 44.3 ± 1.96%. Also, the inhibition at 10 µM on SIRT3 is 26.8 ± 1.88%.

Regarding `C=CC(=O)Nc1ccc(-c2cc(C(=O)Nc3ccc(Cl)cc3)c3ccccc3n2)cc1` [Compound P11, 2-(4-Acryloylamino-phenyl)-quinoline-4-carboxylic acid (4-chloro-phenyl)-amide], the inhibition at 1 µM in the experiment with THP-1 cells was 58 ± 2.08%. Further, on SIRT3, the inhibition at 10 µM was found to be 35.7 ± 1.54%.

For `C=CC(=O)Nc1ccc(-c2cc(C(=O)Nc3ccc(C)cc3)c3ccccc3n2)cc1` [Compound P12, 2-(4-Acryloylamino-phenyl)-quinoline-4-carboxylic acid p-tolylamide], the inhibition at 1 µM with THP-1 cells was 72.8 ± 3.25%. Moreover, at SIRT3, the inhibition at 10 µM stood at 38.9 ± 2.62%.

As for `C=CC(=O)Nc1ccc(-c2cc(C(=O)Nc3ccc(N4CCN(C)CC4)cc3)c3ccccc3n2)cc1` [Compound P19], on SIRT2 (Repeat1), the activity at 0.01 µM is 101%, the activity at 0.033 µM was 99%, the activity at 0.1 µM stood at 101% and the activity at 0.333 µM was 96%. Besides, on SIRT2 (Repeat1), the activity at 1 µM was 97%, the activity at 3.3 µM was determined as 100%, the activity at 10 µM amounted to 91% and the activity at 33 µM was 79%. Besides, the activity at 100 µM at SIRT2 (Repeat1) was found to be 34%. At SIRT2 (Repeat2), the activity at 0.01 µM was 99%, the activity at 0.033 µM was 99%, the activity at 0.1 µM came out at 101% and the activity at 0.333 µM was 98%. Also, on SIRT2 (Repeat2), the activity at 1 µM came out at 98%, the activity at 3.3 µM is 99%, the activity at 10 µM came to 86% and the activity at 33 µM came to 76%. For the same compound, at SIRT2 (Repeat2), the activity at 100 µM came out at 28%. The compound further came in with an IC50 on SIRT2 (mean of two experiments) of 63.6 ± 4.2 µM.

Consider `NC(=O)c1cccnc1` [Nicotinamide, reference compound], for which, on SIRT2 (Repeat1), the activity at 0.01 µM came to 100%, the activity at 0.033 µM is 99%, the activity at 0.1 µM was determined as 97% and the activity at 0.333 µM came to 100%. Moreover, at SIRT2 (Repeat1), the activity at 3.3 µM came out at 92%, the activity at 10 µM was determined as 79%, the activity at 33 µM amounted to 39% and the activity at 100 µM stood at 17%. Further, on SIRT2 (Repeat2), the activity at 0.01 µM came out at 99%, the activity at 0.033 µM was determined as 98%, the activity at 0.333 µM came to 100% and the activity at 1 µM was 99%. Moreover, at SIRT2 (Repeat2), the activity at 3.3 µM was found to be 91%, the activity at 10 µM stood at 69%, the activity at 33 µM stood at 43% and the activity at 100 µM came out at 12%. The activity at 0.01 µM at SIRT1 (10 nM, Repeat2) is 98%. Moreover, the activity at 0.033 µM at SIRT1 (33 nM, Repeat2) was 99%. On SIRT1 (100 nM, Repeat1), the activity at 0.1 µM amounted to 98%. On SIRT1 (Repeat1), the activity at 0.333 µM came to 99%, the activity at 3.3 µM turned out to be 93%, the activity at 10 µM is 79% and the activity at 33 µM came to 59%. Besides, the activity at 100 µM at SIRT1 (Repeat1) is 10%. Further, on SIRT1 (Repeat2), the activity at 0.333 µM was 97%, the activity at 3.3 µM stood at 96%, the activity at 10 µM amounted to 73% and the activity at 33 µM was 52%. Also, the activity at 100 µM at SIRT1 (Repeat2) is 17%. Besides, the activity at 1 µM on SIRT1 (1 µM, Repeat1) amounted to 100%.
